What was measured:
Format in all cases: physicochemical
[1] = Solubility of Compound A and prothioconazole in benzyl acetate/AMD810 blends at 10° C. (HPLC); details: both actives saturated
Experimental: A study of the Compound A and prothioconazole solubility in blends of benzyl acetate/AMD810 was conducted. To each solvent blend both actives were added until each was saturated and the resulting mixtures were then stored at 10° C. until equilibrium was obtained. Aliquots of the supernatant layer were taken from each sample, filtered (0.45 μm mesh) and analyzed by HPLC to determine the solution concentration of each active in the blends.

[2] = Approximate (relative) solubility of active ingredients in organic solvents at ambient temperature; details: 0.2 g Compound A mixed with 1.38 g cyclohexanone
Experimental: The approximate solubility of Compound A was determined by mixing a known mass of the active ingredient with an increasing mass of each solvent at ambient temperature. […] The solubility of Compound A in the solvents used in this screening procedure was generally classified within the following concentration ranges: […]

[3] = Accelerated storage stability of Compound A in liquid compositions, 2 weeks at 54° C. (HPLC)
Experimental: The test compositions were prepared in a manner similar to that described in Example 1 using one or more of Compound A, prothioconazole, pyraclostrobin, benzyl acetate, and AMD 810, and a third solvent chosen from cyclohexanone, acetophenone, 2-heptanone, 2-heptanal, oleyl alcohol or 2-ethylhexanol.

COc1ccnc(C(=O)N[C@H]2COC(=O)[C@H](Cc3ccccc3)[C@@H](OC(=O)C(C)C)[C@H](C)OC2=O)c1OCOC(=O)C(C)C [Compound A, propanoic acid, 2-methyl-, [[4-methoxy-2-[[[(3S,7R,8R,9S)-9-methyl-8-(2-methyl-1-oxopropoxy)-2,6-dioxo-7-(phenylmethyl)-1,5-dioxonan-3-yl]amino]carbonyl]-3-pyridinyl]oxy]methyl ester]
Compound A Solubility at 10° C. ([1]; benzyl acetate to AMD810 in blend 0 wt %): 3.3 % w/w
Compound A Solubility at 10° C. ([1]; benzyl acetate to AMD810 in blend 20 wt %): 4.3 % w/w
Compound A Solubility at 10° C. ([1]; benzyl acetate to AMD810 in blend 40 wt %): 6.5 % w/w
Compound A Solubility at 10° C. ([1]; benzyl acetate to AMD810 in blend 60 wt %): 11.0 % w/w
Compound A Solubility at 10° C. ([1]; benzyl acetate to AMD810 in blend 80 wt %): 12.0 % w/w
clear solution comprising Compound A [2]: 12.6 % w/w
Compound A after Storage (% retention) ([3]; wt %: Compound A 3.4, AMD 810 96.0, third solvent none): 49^ % retention
Compound A after Storage (% retention) ([3]; wt %: Compound A 4.9, benzyl acetate 94.1, third solvent none): 85^ % retention
Compound A after Storage (% retention) ([3]; wt %: Compound A 12.0, cyclohexanone 85.7): 96^ % retention

Reference: US10238111B2, “Fungicidal compositions” (Dow AgroSciences LLC, priority 2014, dated 2019)
